The target of one experiment is K-Ras G12C (Homo sapiens (Human), UniProt P01116+P62937, G12C). Briefly: Ras-Raf (BRAF RBD) disruption / FRET / MOA assay, KRAS G12C. It counts as biochemical. The note with it: KRAS G12C; Ras-Raf disruption/FRET/MOA assay; read-out: IC50* KRAS G12C FRET data. In outline:
(§1)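 Compounds, top final concentration 30 μM in 10-point 3-fold series, incubated 3 hours at 25° C with nucleotide-loaded Ras, cyclophilin A and BRAF RBD.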

The next experiment deals with K-Ras G13C (Homo sapiens (Human), UniProt P01116+P62937, G13C). In words: Ras-Raf (BRAF RBD) disruption / FRET / MOA assay, KRAS G13C. It counts as biochemical. To be noted: KRAS G13C; Ras-Raf disruption/FRET/MOA assay; read-out: IC50* KRAS G13C FRET data. In outline: as §1
K-Ras G13C, sequence (P01116-2 other isoform, or with tags, fused parts or gaps G13C): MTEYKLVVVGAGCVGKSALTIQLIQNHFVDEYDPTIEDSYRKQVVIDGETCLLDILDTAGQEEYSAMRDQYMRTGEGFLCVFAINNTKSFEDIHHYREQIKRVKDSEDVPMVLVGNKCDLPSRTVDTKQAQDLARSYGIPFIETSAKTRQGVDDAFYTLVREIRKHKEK
K-Ras G13C, sequence (P62937 whole entry): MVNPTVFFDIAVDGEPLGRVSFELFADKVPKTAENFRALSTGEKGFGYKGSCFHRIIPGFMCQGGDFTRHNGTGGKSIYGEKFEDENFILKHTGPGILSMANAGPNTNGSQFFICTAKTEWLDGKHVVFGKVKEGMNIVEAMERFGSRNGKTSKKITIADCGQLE
Experiment [1] has as its system NCI-H358 cells (K-Ras G12C). In words: Potency assay: pERK in NCI-H358 cells. It counts as cell-based, human. To be noted: Homo sapiens, NCI-H358; H358 KRAS G12C; read-out: pERK EC50. In outline: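 pERK decrease read by AlphaLISA SureFire p-ERK1/2 or In-Cell Western after 4 h compound exposure at 37 °C, 5% CO2.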
The next experiment relates to NCI-H358 (K-Ras G12C). Briefly: CellTiter-Glo cell viability assay, NCI-H358. It counts as cell-based, human. To be noted: Homo sapiens, NCI-H358, 120 h, NCI-H358, 5-day treatment; class symbols; read-out: Additional H358 Cell Viability assay data (K-Ras G12C, IC50). In outline:
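Cells seeded, compound added directly, 5-day exposure. Plates to RT ~30 min, CellTiter-Glo luminescence read. Normalized to DMSO avg (x100); 4-parameter logistic fit.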

Another experiment deals with KRAS G13D (Homo sapiens (Human), UniProt P01116+P62937, G13D). In words: Ras-Raf (BRAF RBD) disruption / FRET / MOA assay, KRAS G13D. It counts as biochemical. The note with it: read-out: IC50* KRAS G13D FRET data. In outline: as §1
KRAS G13D, sequence (P01116-2 other isoform, or with tags, fused parts or gaps G13D): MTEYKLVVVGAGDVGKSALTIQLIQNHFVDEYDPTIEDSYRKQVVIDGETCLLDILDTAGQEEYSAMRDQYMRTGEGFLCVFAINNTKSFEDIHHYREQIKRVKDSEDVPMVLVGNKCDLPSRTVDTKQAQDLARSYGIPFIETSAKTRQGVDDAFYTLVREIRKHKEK
KRAS G13D, sequence (P62937 whole entry): as the sequence (P62937 whole entry) above
In another experiment the target is NRAS G12C (Homo sapiens (Human), UniProt P01111+P62937, G12C). Briefly: Ras-Raf (BRAF RBD) disruption / FRET / MOA assay, NRAS G12C. The note with it: read-out: IC50* NRAS G12C FRET data. It counts as biochemical. In outline:
as §1

The target in the next experiment is KRAS WT (Homo sapiens (Human), UniProt P01116+P62937). In words: Ras-Raf (BRAF RBD) disruption / FRET / MOA assay, KRAS WT. It counts as biochemical. The note with it: read-out: IC50* KRAS WT FRET data. In outline: as §1
KRAS WT, sequence (P01116-2 other isoform, or with tags, fused parts or gaps): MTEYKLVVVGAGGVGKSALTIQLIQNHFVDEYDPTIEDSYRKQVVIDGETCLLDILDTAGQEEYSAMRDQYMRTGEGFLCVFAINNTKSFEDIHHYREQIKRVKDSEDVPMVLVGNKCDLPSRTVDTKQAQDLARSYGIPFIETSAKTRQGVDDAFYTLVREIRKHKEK
KRAS WT, sequence (P62937 whole entry): as the sequence (P62937 whole entry) above
In the next experiment the target is KRAS G12S (Homo sapiens (Human), UniProt P01116+P62937, G12S). In words: Ras-Raf (BRAF RBD) disruption / FRET / MOA assay, KRAS G12S. It counts as biochemical. The note with it: Ras-Raf disruption/FRET/MOA assay; class symbols; read-out: KRAS G12S FRET data IC50. In outline:
as §1

In a further experiment the target is KRAS G12V (Homo sapiens (Human), UniProt P01116+P62937, G12V). Briefly: Ras-Raf (BRAF RBD) disruption / FRET / MOA assay, KRAS G12V. To be noted: read-out: IC50* KRAS G12V FRET data. It counts as biochemical. In outline:
as §1

For a further experiment, the target named is KRAS G12D (Homo sapiens (Human), UniProt P01116+P62937, G12D). Briefly: Ras-Raf (BRAF RBD) disruption / FRET / MOA assay, KRAS G12D. It counts as biochemical. To be noted: Ras-Raf disruption/FRET/MOA assay; class symbols; read-out: KRAS G12D FRET data IC50. In outline: as §1
KRAS G12D, sequence (P01116-2 other isoform, or with tags, fused parts or gaps G12D): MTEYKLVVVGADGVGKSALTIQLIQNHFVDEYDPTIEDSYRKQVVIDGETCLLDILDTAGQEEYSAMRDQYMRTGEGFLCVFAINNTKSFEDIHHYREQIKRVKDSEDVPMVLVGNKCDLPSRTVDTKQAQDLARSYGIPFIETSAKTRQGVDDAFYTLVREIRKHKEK
KRAS G12D, sequence (P62937 whole entry): as the sequence (P62937 whole entry) above

Where only a bound is given, the exact number is not on record here.

KRAS G12V, sequence (P01116-2 other isoform, or with tags, fused parts or gaps G12V): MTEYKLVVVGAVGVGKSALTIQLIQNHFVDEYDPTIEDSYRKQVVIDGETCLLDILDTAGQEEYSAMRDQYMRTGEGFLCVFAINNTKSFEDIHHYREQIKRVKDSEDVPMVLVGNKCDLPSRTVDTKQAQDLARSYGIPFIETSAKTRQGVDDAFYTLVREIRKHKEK
KRAS G12V, sequence (P62937 whole entry): as the sequence (P62937 whole entry) above
KRAS G12S, sequence (P01116-2 other isoform, or with tags, fused parts or gaps G12S): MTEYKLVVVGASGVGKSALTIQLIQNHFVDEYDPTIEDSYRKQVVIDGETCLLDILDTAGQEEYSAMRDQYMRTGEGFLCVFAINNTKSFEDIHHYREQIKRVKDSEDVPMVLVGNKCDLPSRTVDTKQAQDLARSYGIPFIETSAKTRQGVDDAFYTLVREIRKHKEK
KRAS G12S, sequence (P62937 whole entry): as the sequence (P62937 whole entry) above
K-Ras G12C, sequence (P01116-2 other isoform, or with tags, fused parts or gaps G12C): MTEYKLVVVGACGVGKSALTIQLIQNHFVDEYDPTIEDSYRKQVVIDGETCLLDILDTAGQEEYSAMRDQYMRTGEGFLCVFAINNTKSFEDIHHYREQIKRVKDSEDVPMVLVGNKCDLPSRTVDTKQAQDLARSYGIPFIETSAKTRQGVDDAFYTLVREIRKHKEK
K-Ras G12C, sequence (P62937 whole entry): as the sequence (P62937 whole entry) above
NRAS G12C, sequence (P01111 whole entry G12C): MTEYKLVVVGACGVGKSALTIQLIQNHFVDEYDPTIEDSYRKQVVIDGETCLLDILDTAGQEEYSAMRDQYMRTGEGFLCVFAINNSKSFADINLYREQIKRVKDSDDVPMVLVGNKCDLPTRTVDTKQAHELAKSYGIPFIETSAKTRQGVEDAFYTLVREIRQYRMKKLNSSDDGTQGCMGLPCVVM
NRAS G12C, sequence (P62937 whole entry): as the sequence (P62937 whole entry) above

Turning to `C=CC(=O)N1C[C@@H](C)N(C(=O)N(C)[C@H](C(=O)N[C@H]2Cc3nc(cs3)-c3ccc4c(c3)c(c(-c3cccnc3[C@H](C)OC)n4CC)CC(C)(C)COC(=O)[C@@H]3CCCN(N3)C2=O)C(C)C)C[C@@H]1C` (atropisomer, axis not shown) [Example A418], the IC50 on K-Ras G12C lay in the range of 10 to 100 nM; at K-Ras G13C, 10 to 100 nM; in the experiment on NCI-H358 (K-Ras G12C) it was 10 to 100 nM; on KRAS G13D it was 100 to 1000 nM; at NRAS G12C, 10 to 100 nM; on KRAS WT, 10 to 100 nM. The IC50 on KRAS G12S fell in the range of 10 to 100 nM; on KRAS G12V, 10 to 100 nM; on KRAS G12D, 100 to 1000 nM. Further, in [1], the 50% effective concentration (EC50) is under 5 µM.

Regarding `C=CC(=O)N1CC2(C1)CN(C(=O)N(C)[C@H](C(=O)N[C@H]1Cc3nc(cs3)-c3ccc4c(c3)c(c(-c3cccnc3[C@H](C)OC)n4CC)CC(C)(C)COC(=O)[C@@H]3CCCN(N3)C1=O)C(C)C)C2` (atropisomer, axis not shown) [Example A419], the IC50 was 100 to 1000 nM on K-Ras G12C; 100 to 1000 nM at K-Ras G13C; under 10 nM in the experiment on NCI-H358 (K-Ras G12C); 1000 to 10000 nM at KRAS G13D; 10 to 100 nM on NRAS G12C; 100 to 1000 nM on KRAS WT. The IC50 lay within 100 to 1000 nM at KRAS G12S, 100 to 1000 nM on KRAS G12V and 1000 to 10000 nM at KRAS G12D. For the same compound, the EC50 in [1] was under 5 µM.

In the case of `C=CC(=O)N1CCN(C(=O)N(C)[C@H](C(=O)N[C@H]2Cc3nc(cs3)-c3ccc4c(c3)c(c(-c3cccnc3[C@H](C)OC)n4CC)CC(C)(C)COC(=O)[C@@H]3CCCN(N3)C2=O)C(C)C)[C@@H](C)C1` (atropisomer, axis not shown) [Example A421], the IC50 at K-Ras G12C lay in the range of 10 to 100 nM; at K-Ras G13C, 10 to 100 nM; in the experiment on NCI-H358 (K-Ras G12C), 10 to 100 nM; at KRAS G13D, 100 to 1000 nM; on NRAS G12C, 10 to 100 nM; at KRAS WT it was 100 to 1000 nM. In addition, the IC50 was 100 to 1000 nM on KRAS G12S, 100 to 1000 nM on KRAS G12V and 1000 to 10000 nM at KRAS G12D. For the same compound, the concentration giving a half-maximal response (EC50) in [1] was under 5 µM.

In the case of `C=CC(=O)NC[C@@H]1CCN1C(=O)N(C)[C@H](C(=O)N[C@H]1Cc2nc(cs2)-c2ccc3c(c2)c(c(-c2cccnc2[C@H](C)OC)n3CC)CC(C)(C)COC(=O)[C@@H]2CCCN(N2)C1=O)C(C)C` (atropisomer, axis not shown) [Example A422], the IC50 on K-Ras G12C is 100 to 1000 nM; on K-Ras G13C, 100 to 1000 nM; in the experiment on NCI-H358 (K-Ras G12C), 10 to 100 nM; on KRAS G13D, 1000 to 10000 nM; at NRAS G12C, 100 to 1000 nM; at KRAS WT it was 1000 to 10000 nM. In addition, the IC50 on KRAS G12S, on KRAS G12V and at KRAS G12D was 1000 to 10000 nM in each case. Besides, the EC50 in experiment [1] was under 5 µM.

Regarding `CC#CC(=O)N1CC[C@@]2(CCN([C@H](C(=O)N[C@H]3Cc4cccc(c4)-c4ccc5c(c4)c(c(-c4cccnc4[C@H](C)OC)n5CC)CC(C)(C)COC(=O)[C@@H]4CCCN(N4)C3=O)C(C)C)C2=O)C1` (atropisomer, axis not shown) [Example A426], the IC50 is 100 to 1000 nM at K-Ras G12C; 1000 to 10000 nM on K-Ras G13C; 10 to 100 nM with NCI-H358 (K-Ras G12C); over 10000 nM on KRAS G13D; 1000 to 10000 nM at NRAS G12C; 1000 to 10000 nM on KRAS WT. The IC50 at KRAS G12S is 1000 to 10000 nM; on KRAS G12V, 1000 to 10000 nM; on KRAS G12D it was over 10000 nM. For the same compound, the concentration giving a half-maximal response (EC50) in [1] was under 5 µM.

For `C=CC(=O)N1C[C@H](C)N(C(=O)N(C)[C@H](C(=O)N[C@H]2Cc3nc(cs3)-c3ccc4c(c3)c(c(-c3cccnc3[C@H](C)OC)n4CC)CC(C)(C)COC(=O)[C@@H]3CCCN(N3)C2=O)C(C)C)C[C@H]1C` (atropisomer, axis not shown) [Example A430], the 50% inhibitory concentration (IC50) was in the range of 100 to 1000 nM at K-Ras G12C; 100 to 1000 nM at K-Ras G13C; 10 to 100 nM with NCI-H358 (K-Ras G12C); 1000 to 10000 nM on KRAS G13D; 100 to 1000 nM on NRAS G12C; 100 to 1000 nM at KRAS WT. For the same compound, the IC50 is 100 to 1000 nM at KRAS G12S, 1000 to 10000 nM at KRAS G12V and 1000 to 10000 nM on KRAS G12D. In addition, the EC50 in experiment [1] was under 5 µM.

The IC50 is the concentration needed to halve the response being measured. Usually EC50 stands for the concentration needed to bring the measured effect to its halfway point.

These data come from US11566007B2, “Ras inhibitors” (Revolution Medicines, Inc., priority 2019, dated 2023).
